Melting point data for two compounds are collected here from patent publication US20010018452A1 (published 2001).

`CON=C(C(=O)OC)c1cc(C)c(C)cc1COc1ccccc1C` came in with a melting point of 82 to 84 °C.

In the case of `CNC(=O)C(=NOC)c1cc(C)c(C)cc1C(ON)=C(C)c1cccc(C(F)(F)F)c1`, the melting point was 129 to 134 °C.
